pIC50: −log10 of the molar value.

The assay deals with PC3 cells. As to the kind of experiment: NAMPT Cell Proliferation Assay. The format is cell-based. Conditions: Homo sapiens, PC-3, 120 h, 5 days incubation, cell viability by Cell Titer Glo. The procedure:
NAMPT Cell Proliferation Assay
PC3 cells were seeded in 96-well black plates (Corning #3904) at 500 cells/well in 90 μl of RPMI media containing 10% heat-inactivated FBS and incubated overnight at 37° C. and 5% CO2 to allow cells to attach to wells. The following day, test compounds were serially diluted in neat DMSO to 1000× final concentrations prior to dilution with RPMI media to 10× and 1% DMSO. Ten μL of the 10× compounds were then transferred to wells containing cells to produce a dose response of 10-fold dilutions from 10 μM to 1×10^−5 μM. Cells were incubated for 5 days at 37° C. and 5% CO2, then cell viability was measured using Cell Titer Glo reagent (Promega #G7571). Percent inhibition values were calculated and fitted to a sigmoidal dose response curves using Assay Explorer software to determine IC50s.
(In ATP-based viability assays light output follows the ATP content of the culture.)
In the case of `O=C(NCc1cn2ccnc2cn1)c1ccc(C2CCN(C(=O)c3ccccc3F)CC2)s1` [Example 827, 5-[1-(2-fluorobenzoyl)piperidin-4-yl]-N-(imidazo[1,2-a]pyrazin-6-ylmethyl)thiophene-2-carboxamide], the pIC50 (in general, the IC50 on a negative log10 scale, so that one unit is a factor of ten) is 9.20.

Regarding `O=C(NCc1cn2ccnc2cn1)c1ccc(C2CCN(C(=O)c3ccc(F)cc3)CC2)s1` [Example 828, 5-[1-(4-fluorobenzoyl)piperidin-4-yl]-N-(imidazo[1,2-a]pyrazin-6-ylmethyl)thiophene-2-carboxamide], the pIC50 is 8.19. With `O=C(NCc1cn2ccnc2cn1)c1ccc(C2CCN(C(=O)c3ccc(F)cc3F)CC2)s1` [Example 829, 5-[1-(2,4-difluorobenzoyl)piperidin-4-yl]-N-(imidazo[1,2-a]pyrazin-6-ylmethyl)thiophene-2-carboxamide] the figure was 8.75; with `O=C(NCc1cn2ccnc2cn1)c1ccc(C2CCN(C(=O)c3cc(F)ccc3F)CC2)s1` [Example 830, 5-[1-(2,5-difluorobenzoyl)piperidin-4-yl]-N-(imidazo[1,2-a]pyrazin-6-ylmethyl)thiophene-2-carboxamide], 9.57; with `O=C(NCc1ccc2ncnn2c1)c1ccc(C2CCN(C(=O)c3ccccc3F)CC2)s1` [Example 831, 5-[1-(2-fluorobenzoyl)piperidin-4-yl]-N-([1,2,4]triazolo[1,5-a]pyridin-6-ylmethyl)thiophene-2-carboxamide], 9.05.

On to `O=C(NCc1ccc2ncnn2c1)c1ccc(C2CCN(C(=O)c3cccc(F)c3)CC2)s1` [Example 832, 5-[1-(3-fluorobenzoyl)piperidin-4-yl]-N-([1,2,4]triazolo[1,5-a]pyridin-6-ylmethyl)thiophene-2-carboxamide], for which the pIC50 was 8.00. `O=C(NCc1ccc2ncnn2c1)c1ccc(C2CCN(C(=O)c3ccc(F)cc3)CC2)s1` [Example 833, 5-[1-(4-fluorobenzoyl)piperidin-4-yl]-N-([1,2,4]triazolo[1,5-a]pyridin-6-ylmethyl)thiophene-2-carboxamide] gave a pIC50 of 7.15. This pIC50 is 0.85 log units lower than that of the molecule before. Turning to `O=C(NCc1ccc2ncnn2c1)c1ccc(C2CCN(C(=O)c3ccc(F)cc3F)CC2)s1` [Example 834, 5-[1-(2,4-difluorobenzoyl)piperidin-4-yl]-N-([1,2,4]triazolo[1,5-a]pyridin-6-ylmethyl)thiophene-2-carboxamide], the pIC50 was 7.90. Under `O=C(NCc1ccc2ncnn2c1)c1ccc(C2CCN(C(=O)c3cc(F)ccc3F)CC2)s1` [Example 835, 5-[1-(2,5-difluorobenzoyl)piperidin-4-yl]-N-([1,2,4]triazolo[1,5-a]pyridin-6-ylmethyl)thiophene-2-carboxamide] stands 8.40; under `O=C(NCc1ccc2ncnn2c1)c1ccc(C2CCN(C(=O)c3cc(F)cc(F)c3)CC2)s1` [Example 836, 5-[1-(3,5-difluorobenzoyl)piperidin-4-yl]-N-([1,2,4]triazolo[1,5-a]pyridin-6-ylmethyl)thiophene-2-carboxamide], 7.17; under `CC(C)C(=O)N1CCC(c2ccc(C(=O)NCc3cn4ccnc4cn3)s2)CC1` [Example 837, N-(imidazo[1,2-a]pyrazin-6-ylmethyl)-5-[1-(2-methylpropanoyl)piperidin-4-yl]thiophene-2-carboxamide], 8.56.

`CC(C)CC(=O)N1CCC(c2ccc(C(=O)NCc3cn4ccnc4cn3)s2)CC1` [Example 838, N-(imidazo[1,2-a]pyrazin-6-ylmethyl)-5-[1-(3-methylbutanoyl)piperidin-4-yl]thiophene-2-carboxamide]: the pIC50 was 8.57.

`CC1(C(=O)N2CCC(c3ccc(C(=O)NCc4cn5ccnc5cn4)s3)CC2)CC1` [Example 839, N-(imidazo[1,2-a]pyrazin-6-ylmethyl)-5-{1-[(1-methylcyclopropyl)carbonyl]piperidin-4-yl}thiophene-2-carboxamide] gave a pIC50 of 9.22. In the case of `O=C(NCc1cn2ccnc2cn1)c1ccc(C2CCN(C(=O)CCC(F)(F)F)CC2)s1` [Example 840, N-(imidazo[1,2-a]pyrazin-6-ylmethyl)-5-[1-(4,4,4-trifluorobutanoyl)piperidin-4-yl]thiophene-2-carboxamide], the pIC50 was 8.56. With `O=C(NCc1cn2ccnc2cn1)c1ccc(C2CCN(C(=O)C3CCOCC3)CC2)s1` [Example 841, N-(imidazo[1,2-a]pyrazin-6-ylmethyl)-5-[1-(tetrahydro-2H-pyran-4-ylcarbonyl)piperidin-4-yl]thiophene-2-carboxamide] the figure was 8.21; with `CC(C)C(=O)N1CCC(c2ccc(C(=O)NCc3ccc4ncnn4c3)s2)CC1` [Example 842, 5-[1-(2-methylpropanoyl)piperidin-4-yl]-N-([1,2,4]triazolo[1,5-a]pyridin-6-ylmethyl)thiophene-2-carboxamide], 7.15; with `CC(C)CC(=O)N1CCC(c2ccc(C(=O)NCc3ccc4ncnn4c3)s2)CC1` [Example 843, 5-[1-(3-methylbutanoyl)piperidin-4-yl]-N-([1,2,4]triazolo[1,5-a]pyridin-6-ylmethyl)thiophene-2-carboxamide], 7.76. Under `CC[C@H](C)C(=O)N1CCC(c2ccc(C(=O)NCc3ccc4ncnn4c3)s2)CC1` [Example 844, 5-{1-[(2S)-2-methylbutanoyl]piperidin-4-yl}-N-([1,2,4]triazolo[1,5-a]pyridin-6-ylmethyl)thiophene-2-carboxamide] stands 7.83; under `CC1(C(=O)N2CCC(c3ccc(C(=O)NCc4ccc5ncnn5c4)s3)CC2)CC1` [Example 845, 5-{1-[(1-methylcyclopropyl)carbonyl]piperidin-4-yl}-N-([1,2,4]triazolo[1,5-a]pyridin-6-ylmethyl)thiophene-2-carboxamide], 8.41; under `O=C(NCc1ccc2ncnn2c1)c1ccc(C2CCN(C(=O)CC(F)(F)F)CC2)s1` [Example 846, N-([1,2,4]triazolo[1,5-a]pyridin-6-ylmethyl)-5-[1-(3,3,3-trifluoropropanoyl)piperidin-4-yl]thiophene-2-carboxamide], 7.13. With `O=C(NCc1ccc2ncnn2c1)c1ccc(C2CCN(C(=O)CCC(F)(F)F)CC2)s1` [Example 847, N-([1,2,4]triazolo[1,5-a]pyridin-6-ylmethyl)-5-[1-(4,4,4-trifluorobutanoyl)piperidin-4-yl]thiophene-2-carboxamide] the figure was 7.03. Molecule `O=C(NCc1ccc2ncnn2c1)c1ccc(C2CCN(C(=O)C3CCC(F)(F)CC3)CC2)s1` [Example 848, 5-{1-[(4,4-difluorocyclohexyl)carbonyl]piperidin-4-yl}-N-([1,2,4]triazolo[1,5-a]pyridin-6-ylmethyl)thiophene-2-carboxamide] showed a negative-log IC50 (pIC50) of 7.53. Under `O=C(NCc1ccc2ncnn2c1)c1ccc(C2CCN(C(=O)C3CCOCC3)CC2)s1` [Example 849, 5-[1-(tetrahydro-2H-pyran-4-ylcarbonyl)piperidin-4-yl]-N-([1,2,4]triazolo[1,5-a]pyridin-6-ylmethyl)thiophene-2-carboxamide] stands 7.20. `CC(C)(O)C(=O)N1CCC(c2ccc(C(=O)NCc3ccc4ncnn4c3)s2)CC1` [Example 850, 5-[1-(2-hydroxy-2-methylpropanoyl)piperidin-4-yl]-N-([1,2,4]triazolo[1,5-a]pyridin-6-ylmethyl)thiophene-2-carboxamide] gave a pIC50 of 7.27. Regarding `CN1CCC(C(=O)N2CCC(c3ccc(C(=O)NCc4ccc5ncnn5c4)s3)CC2)CC1` [Example 851, 5-{1-[(1-methylpiperidin-4-yl)carbonyl]piperidin-4-yl}-N-([1,2,4]triazolo[1,5-a]pyridin-6-ylmethyl)thiophene-2-carboxamide], the pIC50 is 6.88.

The molecule `N#Cc1ccccc1C(=O)N1CCC(c2ccc(C(=O)NCc3ccc4ncnn4c3)s2)CC1` [Example 852, 5-[1-(2-cyanobenzoyl)piperidin-4-yl]-N-([1,2,4]triazolo[1,5-a]pyridin-6-ylmethyl)thiophene-2-carboxamide] had a pIC50 of 8.08. Under `O=C(NCc1ccc2ncnn2c1)c1ccc(C2CCN(C(=O)c3ccccn3)CC2)s1` [Example 853, 5-[1-(pyridin-2-ylcarbonyl)piperidin-4-yl]-N-([1,2,4]triazolo[1,5-a]pyridin-6-ylmethyl)thiophene-2-carboxamide] stands 8.00.

Molecule `O=C(Cc1ccc2nccn2c1)Nc1ccc(NC(=O)CC2CCCC2)cc1` [Example 854, 2-cyclopentyl-N-{4-[(imidazo[1,2-a]pyridin-6-ylacetyl)amino]phenyl}acetamide] had a pIC50 of 9.38. With `CC(C)(C)OC(=O)N1CCC(c2ccc(C(=O)NCc3ccc4nccn4n3)cc2)CC1` [Example 855, tert-butyl 4-{4-[(imidazo[1,2-b]pyridazin-6-ylmethyl)carbamoyl]phenyl}piperidine-1-carboxylate] the figure was 6.95; with `O=C(CC1CCCC1)Nc1ccc(C(=O)NCc2ccc3nccn3n2)cc1` [Example 856, 4-[(cyclopentylacetyl)amino]-N-(imidazo[1,2-b]pyridazin-6-ylmethyl)benzamide], 6.18. As to `O=C(NCc1ccn2ccnc2c1)c1ccc(-c2cc(C3CC3)nn2Cc2ccccc2)s1` [Example 857, 5-(1-benzyl-3-cyclopropyl-1H-pyrazol-5-yl)-N-(imidazo[1,2-a]pyridin-7-ylmethyl)thiophene-2-carboxamide], the pIC50 is 8.81. With `CC(C)(C)Cn1cc(-c2ccc(C(=O)NCc3cn4ccnc4cn3)s2)cn1` [Example 858, 5-[1-(2,2-dimethylpropyl)-1H-pyrazol-4-yl]-N-(imidazo[1,2-a]pyrazin-6-ylmethyl)thiophene-2-carboxamide] the figure was 9.23.

(Values after patent US9187472B2 (AbbVie Inc., priority 2012, dated 2015).)
